Some results are limits rather than exact numbers.

Sequence of USP19 (O94966 whole entry): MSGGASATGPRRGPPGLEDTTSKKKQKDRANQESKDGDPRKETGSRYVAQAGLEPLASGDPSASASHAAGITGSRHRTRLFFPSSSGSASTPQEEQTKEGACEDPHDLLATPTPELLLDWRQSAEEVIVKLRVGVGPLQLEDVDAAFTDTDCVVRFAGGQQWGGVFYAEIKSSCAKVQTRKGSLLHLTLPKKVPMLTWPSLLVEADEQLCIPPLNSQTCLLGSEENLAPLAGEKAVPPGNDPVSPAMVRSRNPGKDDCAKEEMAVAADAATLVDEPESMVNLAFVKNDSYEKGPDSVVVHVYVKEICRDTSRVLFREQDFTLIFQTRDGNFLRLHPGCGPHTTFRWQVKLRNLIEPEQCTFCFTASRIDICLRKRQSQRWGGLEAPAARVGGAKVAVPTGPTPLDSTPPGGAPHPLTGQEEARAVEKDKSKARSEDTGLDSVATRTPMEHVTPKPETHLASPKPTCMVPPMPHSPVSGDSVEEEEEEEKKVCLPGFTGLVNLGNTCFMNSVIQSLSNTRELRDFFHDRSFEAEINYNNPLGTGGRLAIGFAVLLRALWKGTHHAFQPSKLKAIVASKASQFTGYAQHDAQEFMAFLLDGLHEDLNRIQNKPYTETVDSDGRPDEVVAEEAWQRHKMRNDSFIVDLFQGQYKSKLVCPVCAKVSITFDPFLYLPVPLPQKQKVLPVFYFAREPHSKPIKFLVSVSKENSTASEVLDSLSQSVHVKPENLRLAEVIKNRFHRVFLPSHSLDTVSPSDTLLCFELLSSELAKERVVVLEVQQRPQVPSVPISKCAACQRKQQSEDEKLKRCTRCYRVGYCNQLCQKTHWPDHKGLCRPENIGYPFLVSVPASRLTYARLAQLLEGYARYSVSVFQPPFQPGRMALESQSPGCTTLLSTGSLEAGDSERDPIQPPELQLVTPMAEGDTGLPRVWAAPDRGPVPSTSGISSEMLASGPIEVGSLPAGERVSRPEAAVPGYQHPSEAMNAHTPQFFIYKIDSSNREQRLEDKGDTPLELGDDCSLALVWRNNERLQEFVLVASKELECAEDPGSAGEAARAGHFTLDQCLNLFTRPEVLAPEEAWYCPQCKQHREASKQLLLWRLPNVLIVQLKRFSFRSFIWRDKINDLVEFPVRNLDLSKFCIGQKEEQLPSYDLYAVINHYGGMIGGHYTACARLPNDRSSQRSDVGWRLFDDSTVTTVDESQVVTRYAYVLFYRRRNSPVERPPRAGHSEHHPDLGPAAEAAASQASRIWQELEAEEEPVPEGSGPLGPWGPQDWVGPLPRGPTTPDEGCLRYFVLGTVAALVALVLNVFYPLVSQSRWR

The target in this assay is USP19 (Homo sapiens (Human), UniProt O94966). Description: USP19 activity assay (fluorescence polarisation, Ubiquitin-Lys-TAMRA substrate). The settings on record: full-length USP19 2.5 nM, 30 min pre-incubation, Ub substrate 500 nM; average of at least two duplicate experiments. The class given is biochemical. On the procedure:
Unless otherwise stated, all other reagents were purchased from Sigma. Enzymatic reactions were conducted in black flat bottom polystyrene 384-well plates (Nunc) and 30 μL total volume. […] Inhibitors were stored as 10 mM DMSO stocks in an inert environment (low humidity, dark, low oxygen, room temperature) using the Storage Pod System and serial dilutions were prepared in buffer just prior to the assay (from 200 μM to 2 pM, 8-18 data point curve). Following incubation at RT for 30 min, the enzymatic reactions were initiated by dispensing the Ub substrate (500 nM, 10 μL). FP was measured every 15 min over a period of 90 min (within the linear range of the assay) using a Synergy 4 plate reader (BioTek) exciting at 530 nm and measuring the amount of parallel and perpendicular light at 575 nm. The FP signal was subsequently normalised to the no compound control.
A general note: Fluorescence polarisation rises when a labelled molecule tumbles more slowly, as on binding a larger partner.
Consider `C[C@H](CC1CCCCC1)C(=O)N1CCC(O)(Cn2cnc(-c3ccccc3)cc2=O)C(C)(C)C1` (mixture of isomers) [Example 50, 3-(((R)-1-((R)-3-Cyclohexyl-2-methylpropanoyl)-4-hydroxy-3,3-dimethylpiperidin-4-yl)methyl)-6-phenylpyrimidin-4(3H)-one and 3-(((S)-1-((R)-3-Cyclohexyl-2-methylpropanoyl)-4-hydroxy-3,3-dimethylpiperidin-4-yl)methyl)-6-phenylpyrimidin-4(3H)-one], for which the IC50 (usually the concentration that inhibits the measured activity by half) is below 0.5 µM.

As for `CC(C)N(C)C(=O)c1cn(CC2(O)CCN(C(=O)[C@H](C)CC3CCCCC3)CC2(C)C)c(=O)cc1-c1ccccc1` (mixture of isomers) [Example 73, 1-(((R)-1-((R)-3-Cyclohexyl-2-methylpropanoyl)-4-hydroxy-3,3-dimethylpiperidin-4-yl)methyl)-N-isopropyl-N-methyl-6-oxo-4-phenyl-1,6-dihydropyridine-3-carboxamide and 1-(((S)-1-((R)-3-Cyclohexyl-2-methylpropanoyl)-4-hydroxy-3,3-dimethylpiperidin-4-yl)methyl)-N-isopropyl-N-methyl-6-oxo-4-phenyl-1,6-dihydropyridine-3-carboxamide], the IC50 was below 0.5 µM.

Regarding `CC(Cc1ccccc1)C(=O)N1CCC(O)(Cn2cnc(-c3ccccc3F)cc2=O)CC1` (racemic) [Example 5, (R,S)-6-(2-Fluorophenyl)-3-((4-hydroxy-1-(2-methyl-3-phenylpropanoyl)piperidin-4-yl)methyl)pyrimidin-4(3H)-one], the IC50 lay within 5 to 50 µM.

For the compound `CC(C)N(C)C(=O)c1cn(CC2(O)CCN(C(=O)C3(C)CCc4ccccc4C3)CC2)c(=O)cc1-c1ccccc1F` (racemic) [Example 14, (R,S)-4-(2-Fluorophenyl)-1-((4-hydroxy-1-(2-methyl-1,2,3,4-tetrahydronaphthalene-2-carbonyl)piperidin-4-yl)methyl)-N-isopropyl-N-methyl-6-oxo-1,6-dihydropyridine-3-carboxamide], the IC50 is 0.5 to 5 µM.

As to `O=C([C@@H]1C[C@@H]1c1ccccc1)N1CCC(O)(Cn2cnc(-c3ccccc3F)cc2=O)CC1` (racemic) [Example 41, rac-6-(2-Fluorophenyl)-3-((4-hydroxy-1-(cis-2-phenylcyclopropanecarbonyl)piperidin-4-yl)methyl)pyrimidin-4(3H)-one], the IC50 lay within 5 to 50 µM.

With `O=C(C(O)CC1CCCCC1)N1CCC(O)(Cn2cnc(-c3ccccc3F)cc2=O)CC1` (racemic) [Example 44, (R,S)-3-((1-(3-Cyclohexyl-2-hydroxypropanoyl)-4-hydroxypiperidin-4-yl)methyl)-6-(2-fluorophenyl)pyrimidin-4(3H)-one], the IC50 was in the range of 5 to 50 µM.

Take `O=C(C(F)CC1CCCCC1)N1CCC(O)(Cn2cnc(-c3ccccc3F)cc2=O)CC1` (racemic) [Example 49, (R,S)-3-((1-(3-Cyclohexyl-2-fluoropropanoyl)-4-hydroxypiperidin-4-yl)methyl)-6-(2-fluorophenyl)pyrimidin-4(3H)-one]: the IC50 was in the range of 50 to 250 µM.

As to `CC(CC1CCC1)C(=O)N1CCC(O)(Cn2cnc(-c3ccccc3F)cc2=O)CC1` (racemic) [Example 57, (R,S)-3-((1-(3-Cyclobutyl-2-methylpropanoyl)-4-hydroxypiperidin-4-yl)methyl)-6-(2-fluorophenyl)pyrimidin-4(3H)-one], the IC50 was 5 to 50 µM.

With `CC(CC1CCCCCC1)C(=O)N1CCC(O)(Cn2cnc(-c3ccccc3F)cc2=O)CC1` (racemic) [Example 58, (R,S)-3-((1-(3-Cycloheptyl-2-methylpropanoyl)-4-hydroxypiperidin-4-yl)methyl)-6-(2-fluorophenyl)pyrimidin-4(3H)-one], the IC50 lay within 5 to 50 µM.

`CC1(C)CN(C(=O)c2c[nH]nc2C2CCCCC2)CCC1(O)Cn1cnc(-c2ccccc2F)cc1=O` (racemic) [Example 67, (R,S)-3-((1-(3-Cyclohexyl-1H-pyrazole-4-carbonyl)-4-hydroxy-3,3-dimethylpiperidin-4-yl)methyl)-6-(2-fluorophenyl)pyrimidin-4(3H)-one]: the IC50 fell in the range of 5 to 50 µM.

As to `CC1(C)CN(C(=O)CCc2ccccc2)CCC1(O)Cn1cnc(-c2ccccc2F)cc1=O` (racemic) [Example 68, (R,S)-6-(2-Fluorophenyl)-3-((4-hydroxy-3,3-dimethyl-1-(3-phenylpropanoyl)piperidin-4-yl)methyl)pyrimidin-4(3H)-one], the concentration for half-maximal inhibition (IC50) lay in the range of 5 to 50 µM.

As for `CC(C)CC1(C(=O)N2CCC(O)(Cn3cnc(-c4ccccc4F)cc3=O)C(C)(C)C2)CC1` (racemic) [Example 69, (R,S)-6-(2-Fluorophenyl)-3-((4-hydroxy-1-(1-isobutylcyclopropane-1-carbonyl)-3,3-dimethylpiperidin-4-yl)methyl)pyrimidin-4(3H)-one], the IC50 fell in the range of 5 to 50 µM.

For the compound `CC(C)(CC(=O)N1CCC(O)(Cn2cnc(-c3ccccc3F)cc2=O)C(C)(C)C1)c1ccccc1` (racemic) [Example 70, (R,S)-6-(2-Fluorophenyl)-3-((4-hydroxy-3,3-dimethyl-1-(3-methyl-3-phenylbutanoyl)piperidin-4-yl)methyl)pyrimidin-4(3H)-one], the IC50 fell in the range of 5 to 50 µM.

For `CC1(C)CN(C(=O)CCC2CCCCC2)CCC1(O)Cn1cnc(-c2ccccc2F)cc1=O` (racemic) [Example 78, (R,S)-3-((1-(3-Cyclohexylpropanoyl)-4-hydroxy-3,3-dimethylpiperidin-4-yl)methyl)-6-(2-fluorophenyl)pyrimidin-4(3H)-one], the IC50 lay within 0.5 to 5 µM.

On to `CC(C)N(C)C(=O)c1cn(CC2(O)CCN(C(=O)CCC3CCC3)CC2(C)C)c(=O)cc1-c1ccccc1` (racemic) [Example 79, (R,S)-1-((1-(3-Cyclobutylpropanoyl)-4-hydroxy-3,3-dimethylpiperidin-4-yl)methyl)-N-isopropyl-N-methyl-6-oxo-4-phenyl-1,6-dihydropyridine-3-carboxamide], for which the IC50 was in the range of 0.5 to 5 µM.

On to `CCCCC(CC)C(=O)N1CCC(O)(Cn2cc(C(=O)N(C)C(C)C)c(-c3ccccc3)cc2=O)CC1` (racemic) [Example 80, (R,S)-1-((1-(2-Ethylhexanoyl)-4-hydroxypiperidin-4-yl)methyl)-N-isopropyl-N-methyl-6-oxo-4-phenyl-1,6-dihydropyridine-3-carboxamide], for which the IC50 was 5 to 50 µM.

In the case of `CC1(C(=O)N2CCC(O)(Cn3cnc(-c4ccccc4F)cc3=O)C(C)(C)C2)CCCCC1` (racemic) [Example 81, (R,S)-6-(2-Fluorophenyl)-3-((4-hydroxy-3,3-dimethyl-1-(1-methylcyclohexane-1-carbonyl)piperidin-4-yl)methyl)pyrimidin-4(3H)-one], the IC50 was in the range of 50 to 250 µM.

With `CC1(C)CN(C(=O)CCC2CC2)CCC1(O)Cn1cnc(-c2ccccc2F)cc1=O` (racemic) [Example 83, (R,S)-3-((1-(3-Cyclopropylpropanoyl)-4-hydroxy-3,3-dimethylpiperidin-4-yl)methyl)-6-(2-fluorophenyl)pyrimidin-4(3H)-one], the IC50 is 50 to 250 µM.

For `C[C@H](CC(=O)N1CCC(O)(Cn2cc(Br)c(-c3ccccc3)cc2=O)CC1)c1ccccc1` [Example 1, (R)-5-Bromo-1-((4-hydroxy-1-(3-phenylbutanoyl)piperidin-4-yl)methyl)-4-phenylpyridin-2(1H)-one], the half-maximal inhibitory concentration (IC50) was in the range of 50 to 250 µM.

Take `O=C(CCc1ccccc1)N1CCC(O)(Cn2cnc(-c3ccccc3F)cc2=O)CC1` [Example 2, 6-(2-Fluorophenyl)-3-((4-hydroxy-1-(3-phenylpropanoyl)piperidin-4-yl)methyl)pyrimidin-4(3H)-one]: the IC50 fell in the range of 50 to 250 µM.

With `O=C(CCC1CCC1)N1CCC(O)(Cn2cnc(-c3ccccc3F)cc2=O)CC1` [Example 3, 3-((1-(3-Cyclobutylpropanoyl)-4-hydroxypiperidin-4-yl)methyl)-6-(2-fluorophenyl)pyrimidin-4(3H)-one], the IC50 fell in the range of 50 to 250 µM.

Regarding `O=C(CCC1CCCC1)N1CCC(O)(Cn2cnc(-c3ccccc3F)cc2=O)CC1` [Example 4, 3-((1-(3-Cyclopentylpropanoyl)-4-hydroxypiperidin-4-yl)methyl)-6-(2-fluorophenyl)pyrimidin-4(3H)-one], the IC50 was 50 to 250 µM.

With `CC(=O)Nc1cccc(-c2cn(CC3(O)CCN(C(=O)C[C@@H](C)c4ccccc4)CC3)c(=O)cc2-c2ccccc2)c1` [Example 6, (R)—N-(3-(1-((4-Hydroxy-1-(3-phenylbutanoyl)piperidin-4-yl)methyl)-6-oxo-4-phenyl-1,6-dihydropyridin-3-yl)phenyl)acetamide], the IC50 was 5 to 50 µM.

On to `C[C@H](CC(=O)N1CCC(O)(Cn2cc(-c3cccc(C(N)=O)c3)c(-c3ccccc3)cc2=O)CC1)c1ccccc1` [Example 7, (R)-3-(1-((4-Hydroxy-1-(3-phenylbutanoyl)piperidin-4-yl)methyl)6-oxo-4-phenyl-1,6-dihydropyridin-3-yl)benzamide], for which the IC50 was 0.5 to 5 µM.

Consider `C[C@H](CC(=O)N1CCC(O)(Cn2cc(-c3ccco3)c(-c3ccccc3)cc2=O)CC1)c1ccccc1` [Example 8, (R)-5-(Furan-2-yl)-1-((4-hydroxy-1-(3-phenylbutanoyl)piperidin-4-yl)methyl)-4-phenylpyridin-2(1H)-one], for which the IC50 is 5 to 50 µM.

Regarding `C[C@H](CC(=O)N1CCC(O)(Cn2cc(-c3ccnn3C)c(-c3ccccc3)cc2=O)CC1)c1ccccc1` [Example 9, (R)-1-((4-Hydroxy-1-(3-phenylbutanoyl)piperidin-4-yl)methyl)-5-(1-methyl-1H-pyrazol-5-yl)-4-phenylpyridin-2(1H)-one], the IC50 lay within 5 to 50 µM.

Consider `C[C@H](CC(=O)N1CCC(O)(Cn2cc(-c3ccccc3)c(Cl)cc2=O)CC1)c1ccccc1` [Example 10, (R)-4-Chloro-1-((4-hydroxy-1 (3-phenylbutanoyl)piperidin-4-yl)methyl)-5-phenylpyridin-2(1H)-one], for which the IC50 lay in the range of 50 to 250 µM.

The values above are taken from patent publication US11053213B2, “Pharmaceutical compounds” (ALMAC DISCOVERY LIMITED, priority 2016, dated 2021).
